Tests used:
[1] = tested on: C57BL/6J male mice fed HFD-F; assay: HFD-F mouse model of NAFLD/NASH (body weight, OGTT, biochemistry, histopathology, adipose tissues); format: in vivo; details: 30 mg/kg/day by gavage
From the text: C57BL/6J male mice were fed a high fat diet (HFD) containing 59 KJ% fat plus 1% cholesterol, w/o sugar (ssniff ® EF R/M acc. D12330 mod. 22,7 ME/kg) and fructose (HFD-F) in drinking water (42 g/L), or normal chow diet for 61 days. Food intake was estimated as the difference of weight between the offered and the remnant amount of food at 3-days intervals. The food was provided as pressed pellets and the residual spillage was not considered. After 7 days, HFD-F mice were randomized to receive HFD-F alone or in combination with compound 2 (30 mg/kg/day) by gavage until the end of the experiment. Doses of each agent were chosen according to previously published data. Mice were housed under controlled temperature (22°C) and photoperiods (12:12-h light/dark cycle), allowed unrestricted access to standard mouse chow and tap water. The experimental protocol was approved by the Animal Care and Use Committee of the University of Perugia and by the Italian Minister of Health and Istituto Superiore di Sanità (Italy) and was in agreement with the European guidelines for use of experimental animals (permission n. 583/2017-PR). The general health of the animals was monitored daily by the Veterinarian in the animal facility. At the day of sacrifice, fed mice were deeply anesthetized with a mixture of tiletamine hypochloride and zolazepam hypochloride/xylazine at a dose of 50/5 mg/kg and sacrificed before 12 a.m.
Body weight and body length (nose-to-anus or nose–anus length) were measured in anesthetized mice at the time of sacrifice and were used to calculate the body mass index (BMI) (=body weight (g)/length^2 (cm^2)) and the Lee index (=cube root of body weight (g)/nose-to-anus length (cm)).
AST, ALT, total- and HDL-cholesterol, and triglycerides plasmatic levels were quantified using an automated clinical chemistry analyzer (Cobas, Roche).
After 8 weeks of HFD-F mice were fasted overnight and orally administered glucose (1.5 g/kg body weight) for OGTT. The blood glucose concentrations were measured at 0, 15, 30, 60, 90, and 120 min after feeding or injection using a portable glucose meter (Accu-Check Go, Roche).
Temperature of brown adipose tissue (BAT) was recorded through the study using a noninvasive technology. Briefly, mice were maintained at 25°C and the thermal images were taken by a FLIR E6 thermal imaging camera (FLIR System, Wilsonville, Oregon) and the surface temperature quantified by the FLIR Tools.
For histological examination, portions of the right and left liver lobes were fixed in 10% formalin, embedded in paraffin, sectioned and stained with Sirius red and/or Hematoxylin/Eosin (H&E), for morphometric analysis ([Fiorucci et al., 2004]). NASH severity (steatosis, hepatocytes ballooning, lobular inflammation, and portal inflammation) was scored in H&E-stained cross sections using an adapted grading system of human NASH as described previously ([Carino et al., 2017b]).

LogD octanol/PBS pH 7.4 = format: physicochemical
Description: LogD. Measurements 40 µL of selected compounds were dissolved in 1960 µL of PBS pH 7.4/Octanol. Samples were shacked for 2 h at rt, 10 µL of each phase were withdrawn, diluted in 490 µL of MeOH, and analyzed by LC-MSMS. The ratio of mass signal area obtained in octanol and PBS at pH 7.4 and in organic solvent was employed to calculate LogD.

Which ALT plasma levels [1] does the source give for `O=C(O)c1cccc(-c2ccc(OCc3ccc4ccccc4n3)cc2)c1` [Compound 2, 4'-(quinolin-2-ylmethoxy)-[1,1′-biphenyl]-3-carboxylic acid] here?
The ALT plasma levels was “reduced”.

What about the AST plasma levels [1] of the same molecule?
The AST plasma levels was “reduced”.

What about the “body mass index (BMI)” value [1] of the same molecule?
Its value is “reduced”.

What about the eWAT weight [1] of the same molecule?
The eWAT weight was “reduced”.

What about the “insulin sensitivity (OGTT)” value [1] of the same molecule?
The value was “increased”.

And the “liver fibrosis and collagen deposition (Sirius red)” value [1]?
Its value is “robustly attenuated”.

What about the “liver steatosis and hepatocytes ballooning (H&E)” value [1] of the same molecule?
The value was “highly effective in reversing these features”.

What about the liver weight [1] of the same molecule?
The liver weight was “reversed the effect exerted by the diet”.

What about the proatherogenic lipid profile [1] of the same molecule?
Its proatherogenic lipid profile is “partially reversed”.

And the “ratio of BAT weight/body weight” value [1]?
Its value is “reduced”.

What about the “ratio of eWAT weight/body weight” value [1] of the same molecule?
The value was “reduced these changes”.

What about the “volume of BAT” value [1] of the same molecule?
The value was “reduced”.

What about the body weight gain ([1]; 54 days) of the same molecule?
Its body weight gain is “reduced”.

And the LogD (LogD octanol/PBS pH 7.4)?
The LogD was “proper”.

What about the logD at 2 h (LogD octanol/PBS pH 7.4; octanol/PBS) of the same molecule?
Its logD at 2 h is 2.

Source: publication PMC9085577, “Discovery of a Potent and Orally Active Dual GPBAR1/CysLT1R Modulator for the Treatment of Metabolic Fatty Liver Disease” (Frontiers in Pharmacology, 2022)
